Key:
[1] = (§1) Total body clearance in human; details: in vivo
clinical = details: human, in vivo
Homo sapiens [2] = species: Homo sapiens; details: in vivo
Homo sapiens [3] = species: Homo sapiens; assay: as §1; details: in vivo

Row | Compound | clearance [1] | CL renal (clinical) | CL_renal (Homo sapiens [2]) | CL (Homo sapiens [3])
1 | CCN(CC)CCNC(=O)c1ccc(NC(C)=O)cc1 [ACECAINIDE] | 4 mL/min/kg | 3.2 mL/min/kg |  | 
2 | CCN1CCCC1CNC(=O)c1cc(S(=O)(=O)CC)c(N)cc1OC (stereo not given) [AMISULPRIDE] | 7.8 mL/min/kg | 4.4 mL/min/kg |  | 
3 | CN1CCCC(n2nc(Cc3ccc(Cl)cc3)c3ccccc3c2=O)CC1 (stereo not given) [AZELASTINE] | 9 mL/min/kg | 0.18 mL/min/kg |  | 
4 | CC[C@H]1OC(=O)[C@H](C)[C@@H](O[C@H]2C[C@@](C)(OC)[C@@H](O)[C@H](C)O2)[C@H](C)[C@@H](O[C@@H]2O[C@H](C)C[C@H](N(C)C)[C@H]2O)[C@](C)(O)C[C@@H](C)CN(C)[C@H](C)[C@@H](O)[C@]1(C)O [AZITHROMYCIN] | 10 mL/min/kg | 0.45 mL/min/kg |  | 
5 | CCCC1O[C@@H]2C[C@H]3[C@@H]4CCC5=CC(=O)C=C[C@]5(C)[C@H]4[C@@H](O)C[C@]3(C)[C@]2(C(=O)CO)O1 (stereo not given in full) [BUDESONIDE] | 20 mL/min/kg | 1 mL/min/kg |  | 
6 | CCc1cccc2cc(C(O)CNC(C)(C)C)oc12 (stereo not given) [BUFURALOL] |  |  | 0 mL/min/kg | 
7 | C=CC1=C(C(=O)O)N2C(=O)[C@@H](NC(=O)/C(=N\OCC(=O)O)c3csc(N)n3)[C@H]2SC1 [CEFIXIME] | 1 mL/min/kg | 0.42 mL/min/kg |  | 
8 | COCc1c(C(C)C)nc(C(C)C)c(/C=C/[C@@H](O)C[C@@H](O)CC(=O)O)c1-c1ccc(F)cc1 [CERIVASTATIN] |  |  | 0 mL/min/kg | 
9 | COc1ccc([C@]2(C#N)CC[C@@H](C(=O)O)CC2)cc1OC1CCCC1 [CILOMILAST] | 0.5 mL/min/kg | 0.01 mL/min/kg |  | 
10 | Clc1cccc(Cl)c1N=C1NCCN1 [CLONIDINE] | 4 mL/min/kg | 2.48 mL/min/kg |  | 
11 | CC1=NS(=O)(=O)c2cc(Cl)ccc2N1 [DIAZOXIDE] | 0.06 mL/min/kg | 0.06 mL/min/kg |  | 
12 | Cc1onc(-c2c(Cl)cccc2Cl)c1C(=O)N[C@@H]1C(=O)N2[C@@H]1SC(C)(C)[C@@H]2C(=O)O [DICLOXACILLIN] | 2 mL/min/kg | 1.2 mL/min/kg |  | 
13 | CC(C)N(CCC(C(N)=O)(c1ccccc1)c1ccccn1)C(C)C (stereo not given) [DISOPYRAMIDE] | 0.9 mL/min/kg | 0.5 mL/min/kg |  | 
14 | CCCn1c(=O)[nH]c(=O)c2[nH]cnc21 [ENPROFYLLINE] | 4 mL/min/kg | 3.56 mL/min/kg |  | 
15 | CCN(CC)C(=O)/C(C#N)=C/c1cc(O)c(O)c([N+](=O)[O-])c1 [ENTACAPONE] | 11.7 mL/min/kg | 6.4 mL/min/kg |  | 
16 | COc1cccc2c1C(=O)c1c(O)c3c(c(O)c1C2=O)C[C@@](O)(C(=O)CO)C[C@@H]3O[C@H]1C[C@H](N)[C@@H](O)[C@H](C)O1 [EPIRUBICIN] | 20 mL/min/kg | 2.44 mL/min/kg |  | 
17 | CC[C@@H](CO)NCCN[C@@H](CC)CO [ETHAMBUTOL] | 10 mL/min/kg | 7.3 mL/min/kg |  | 
18 | Nc1nc(=O)[nH]cc1F [FLUCYTOSINE] | 2 mL/min/kg | 1.98 mL/min/kg |  | 
19 | C[C@@H]1O[C@@H]1P(=O)(O)O [FOSFOMYCIN] | 2 mL/min/kg | 2 mL/min/kg |  | 
20 | N=C(N)NC(=O)Cc1c(Cl)cccc1Cl [GUANFACINE] | 5.9 mL/min/kg | 3 mL/min/kg |  | 
21 | CCCCCCCN(CC)CCCC(O)c1ccc(NS(C)(=O)=O)cc1 (stereo not given) [IBUTILIDE] | 25 mL/min/kg | 2.5 mL/min/kg |  | 
22 | O=[N+]([O-])O[C@@H]1CO[C@H]2[C@@H]1OC[C@@H]2O [ISOSORBIDE MONONITRATE] | 2 mL/min/kg | 0.1 mL/min/kg |  | 
23 | Nc1nc2c(c(=O)[nH]1)N(C=O)C(CNc1ccc(C(=O)N[C@@H](CCC(=O)O)C(=O)O)cc1)CN2 (stereo not given in full) [LEUCOVORIN] | 5.3 mL/min/kg | 0.8 mL/min/kg |  | 
24 | O=C1Nc2ccc(Cl)cc2C(c2ccccc2Cl)=NC1O (stereo not given) [LORAZEPAM] | 1 mL/min/kg | 0.01 mL/min/kg |  | 
25 | CC1(C)S[C@@H]2[C@H](NC(=O)[C@H](NC(=O)N3CCN(S(C)(=O)=O)C3=O)c3ccccc3)C(=O)N2[C@H]1C(=O)O [MEZLOCILLIN] | 5.23 mL/min/kg | 2.4 mL/min/kg |  | 

Row | Compound | clearance [1] | CL renal (clinical) | CL_renal (Homo sapiens [2]) | CL (Homo sapiens [3])
26 | Cc1ncc2n1-c1ccc(Cl)cc1C(c1ccccc1F)=NC2 [MIDAZOLAM] |  |  | 0 mL/min/kg | 
27 | CN1CCN2c3ncccc3Cc3ccccc3C2C1 (stereo not given) [MIRTAZAPINE] | 8 mL/min/kg | 0.32 mL/min/kg |  | 
28 | O=C(NCCN1CCOCC1)c1ccc(Cl)cc1 [MOCLOBEMIDE] | 10 mL/min/kg | 0.05 mL/min/kg |  | 
29 | Cc1ccnc2c1NC(=O)c1cccnc1N2C1CC1 [NEVIRAPINE] | 0.3 mL/min/kg | 0.01 mL/min/kg |  | 
30 | CNCCC=C1c2ccccc2CCc2ccccc21 [NORTRIPTYLINE] | 10 mL/min/kg | 0.2 mL/min/kg |  | 
31 | CC1COc2c(N3CCN(C)CC3)c(F)cc3c(=O)c(C(=O)O)cn1c23 (stereo not given) [OFLOXACIN] | 3.5 mL/min/kg | 2.7 mL/min/kg |  | 
32 | CN(C)[C@@H]1C(O)=C(C(N)=O)C(=O)[C@@]2(O)C(O)=C3C(=O)c4c(O)cccc4[C@@](C)(O)[C@H]3[C@H](O)[C@@H]12 [OXYTETRACYCLINE] | 2 mL/min/kg | 1.4 mL/min/kg |  | 
33 | CCN1CCN(C(=O)N[C@@H](C(=O)N[C@@H]2C(=O)N3[C@@H]2SC(C)(C)[C@@H]3C(=O)O)c2ccccc2)C(=O)C1=O [PIPERACILLIN] | 4 mL/min/kg | 3.2 mL/min/kg |  | 
34 | CC(=O)Nc1ccc(OCC(O)CNC(C)C)cc1 (stereo not given) [PRACTOLOL] | 2 mL/min/kg | 1.7 mL/min/kg |  | 
35 | CO[C@H]1/C=C/O[C@@]2(C)Oc3c(C)c(O)c4c(O)c(c(/C=N/N5CCN(C)CC5)c(O)c4c3C2=O)NC(=O)/C(C)=C\C=C\[C@H](C)[C@H](O)[C@@H](C)[C@@H](O)[C@@H](C)[C@H](OC(C)=O)[C@@H]1C [RIFAMPIN] | 1.5 mL/min/kg | 0.2 mL/min/kg |  | 
36 | CN(C)CCc1c[nH]c2ccc(Cn3cncn3)cc12 [RIZATRIPTAN] | 19 mL/min/kg | 5.32 mL/min/kg |  | 
37 | C#CCN(C)[C@H](C)Cc1ccccc1 [SELEGILINE] | 20 mL/min/kg | 0.2 mL/min/kg |  | 
38 | CN[C@@H]1[C@@H](O)[C@@H](O[C@@H]2[C@@H](O)[C@H](O[C@H]3OC(CN)=CC[C@H]3N)[C@@H](N)C[C@H]2N)OC[C@]1(C)O [SISOMICIN] | 1 mL/min/kg | 0.76 mL/min/kg |  | 
39 | N[C@@H](CC(=O)N1CCn2c(nnc2C(F)(F)F)C1)Cc1cc(F)c(F)cc1F [SITAGLIPTIN] | 6 mL/min/kg | 4.74 mL/min/kg |  | 
40 | CC(C)NCC(O)c1ccc(NS(C)(=O)=O)cc1 (stereo not given) [SOTALOL] | 2 mL/min/kg | 1.7 mL/min/kg |  | 
41 | CCN1CCCC1CNC(=O)c1cc(S(N)(=O)=O)ccc1OC (stereo not given) [SULPIRIDE] | 1.83 mL/min/kg | 1.7 mL/min/kg |  | 
42 | C=CC[C@@H]1/C=C(\C)C[C@H](C)C[C@H](OC)[C@H]2O[C@@](O)(C(=O)C(=O)N3CCCC[C@H]3C(=O)O[C@H](/C(C)=C/[C@@H]3CC[C@@H](O)[C@H](OC)C3)[C@H](C)[C@@H](O)CC1=O)[C@H](C)C[C@@H]2OC [TACROLIMUS ANHYDROUS] | 0.7 mL/min/kg | 0.01 mL/min/kg |  | 
43 | CCCCC/C=C\CCC(=O)N[C@H]1[C@H](Oc2c3cc4cc2Oc2ccc(cc2Cl)[C@@H](O[C@@H]2O[C@H](CO)[C@@H](O)[C@H](O)[C@H]2NC(C)=O)[C@@H]2NC(=O)[C@H](NC(=O)[C@@H]4NC(=O)[C@H]4NC(=O)[C@@H](Cc5ccc(c(Cl)c5)O3)NC(=O)[C@H](N)c3ccc(O)c(c3)Oc3cc(O)cc4c3)c3ccc(O)c(c3)-c3c(O[C@H]4O[C@H](CO)[C@@H](O)[C@H](O)[C@@H]4O)cc(O)cc3[C@@H](C(=O)O)NC2=O)O[C@H](CO)[C@@H](O)[C@@H]1O [TEICOPLANIN A2-1] | 0.17 mL/min/kg | 0.17 mL/min/kg |  | 
44 | CN1C(C(=O)Nc2ccccn2)=C(O)c2sccc2S1(=O)=O [TENOXICAM] | 0.03 mL/min/kg |  | 0 mL/min/kg | 
45 | CC1(C)S[C@@H]2[C@H](NC(=O)[C@H](C(=O)O)c3ccsc3)C(=O)N2[C@H]1C(=O)O [TICARCILLIN] | 2.2 mL/min/kg | 1.9 mL/min/kg |  | 
46 | CCS(=O)(=O)CCn1c([N+](=O)[O-])cnc1C [TINIDAZOLE] | 0.6 mL/min/kg | 0.11 mL/min/kg |  | 
47 | CCCCS(=O)(=O)N[C@@H](Cc1ccc(OCCCCC2CCNCC2)cc1)C(=O)O [TIROFIBAN] |  | 1.59 mL/min/kg |  | 4.3 mL/min/kg
48 | CCC1=C[C@@H]2CN(C1)Cc1c([nH]c3ccccc13)[C@@](C(=O)OC)(c1cc3c(cc1OC)N(C)[C@H]1[C@@](O)(C(=O)OC)[C@H](OC(C)=O)[C@]4(CC)C=CCN5CC[C@]31[C@@H]54)C2 [VINORELBINE] | 20 mL/min/kg | 2.2 mL/min/kg |  | 
49 | O=C(NCCNCC(O)COc1ccc(O)cc1)N1CCOCC1 (stereo not given) [XAMOTEROL] | 3 mL/min/kg | 1.86 mL/min/kg |  | 
